Tested on: Hs578T complex spheroid growth, percent test/control
Assay: Anticancer human tumor Hs578T cell line growth inhibition [AhR];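 note: luminescent viability signal as a proxy for spheroid growth; spheroids exposed to agents for one week after three days of growth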
Details: for IC50: curve of first compound; for viability, T/C: stronger effect = lower value
Excerpt: Multicellular complex tumor spheroid response to aryl hydrocarbon receptor antagonists in combination with a variety of drugs and investigational agents in selected tumor cell lines
The current study was undertaken to assess response to aryl hydrocarbon receptor antagonists in combination with standard-of-care drugs and investigational agents in solid tumor complex spheroid models. Complex spheroids include a stromal component modeled by human endothelial cells (HUVEC) and fibroblasts modeled by human mesenchymal stem cells (MSCs). The concentration ranges selected for each drug and investigational agent were based upon clinically achievable concentrations if the clinical Cmax of the agent was known.
Compounds. The drugs and investigational agents: BAY 2416964 (NSC825713), GNF351 (NSC835774), CH-223191 (NSC835775), CPI-455 (NSC825282), aza-TdCyd (NSC777586), decitabine (NSC127716), belinostat (NSC758774), entinostat (NSC756642), pevonedistat (NSC761192), tazemetostat (NSC777109), talazoparib (NSC765396), olaparib (NSC753686), selinexor (NSC780203), nedisertib (M3814, NSC802822), bortezomib (NSC756655), venetoclax (NSC766270), doxorubicin (NSC123127), elimusertib (BAY189344, NSC800525), ceralasertib (AZD6738, NSC777638), TAK-243 (NSC785004), alisertib (NSC759677), etoposide (NSC141540), topotecan (NSC609699), eribulin (NSC707389), gemcitabine (NSC613327), carboplatin (NSC241240), cisplatin (NSC119875), and SN-38 (NSC673596) were obtained from the National Cancer Institute (NCI) Developmental Therapeutics Program Chemical Repository (32). The FDA-approved anticancer drug set is available from the Developmental Therapeutics Program at https://dtp.cancer.gov/organization/dscb/obtaining/available plates.htm. […] The stock solutions were prepared in dimethyl sulfoxide (DMSO, Sigma-Aldrich, St. Louis, MO, cat. D2650), except for the platinum compounds which were prepared in saline (Quality Biological, Gaithersburg, MD, cat. 114-055-101), at 800-fold the tested concentration and stored at -70 degrees C prior to their use. All drugs and investigational agents were tested over a range starting from a high concentration at or near the clinical Cmax and decreasing in half-log increments. If the clinical Cmax for an agent had not been determined, the highest concentration tested was 10 microM (Table 1).
Cell Culture. All cells were maintained in an incubator at 37 degrees C and 5% CO2 with 95% humidity. The PDC lines were cultured according to standard operating procedures established by the NCI PDMR (https://pdmr.cancer.gov). Briefly, all PDCs were thawed and cultured in Matrigel-coated flasks prepared with a working solution of 1X Ham's F-12 nutrient mix, without supplementation (Invitrogen, Waltham, MA, cat. 11765054), 100 U/mL penicillin-streptomycin (Invitrogen, cat. 15140122), and 2.5% Matrigel (Corning Inc., Corning, NY, cat. 354248) for the first three passages. All PDCs were cultured in complete DMEM/F-12 media containing advanced DMEM/F-12 (Invitrogen, cat. 12634028), 4.9% defined fetal bovine serum, heat inactivated (HyClone Laboratories Inc., Logan, UT, cat. SH30070.03HI), 389 ng/mL hydrocortisone (Sigma-Aldrich, cat. H4001), 9.7 ng/mL human EGF recombinant protein (Invitrogen, cat. PHG0313), 23.4 microg/mL adenine (Sigma-Aldrich, cat. A2786), 97.3 U/mL penicillin-streptomycin (Invitrogen, cat. 15140122), 1.9 mM L-glutamine (Invitrogen, cat. 25030081), and 9.7 microM Y-27632 dihydrochloride (Tocris Bioscience, Bristol, United Kingdom, cat. 1254). The PDCs were cultured in complete DMEM/F12 media without 10 microM Y-27632 dihydrochloride for at least two passages prior to the screen. The established cell lines NCI-H1341 and […] were cultured in DMEM/F-12, HEPES (Invitrogen, cat. 11330032), 5% defined fetal bovine serum (HyClone Laboratories Inc., cat. SH30070.03), ITS premix universal culture supplement [insulin (5 microg/mL), transferrin (5 microg/mL), and selenious acid (5 ng/mL)] […]

For `CCc1c2c(nc3ccc(O)cc13)-c1cc3c(c(=O)n1C2)COC(=O)[C@]3(O)CC` + CC(CO)NC(=O)c1cc(-c2ccc(Cl)cc2)nn(-c2cnn(C)c2)c1=O, the IC50 (second compound 0.1 µM) was 207 nM, the IC50 (second compound 0.316 µM) was 158 nM and the IC50 (second compound 1 µM) was 182 nM. The IC50 (second compound 3.16 µM) was 193 nM, the IC50 (second compound 10 µM) was 194 nM and the viability, T/C (second compound 0.1 µM, first compound 0.000949 µM) was 87.1%. For the same molecule, the viability, T/C (second compound 0.1 µM, first compound 0.003 µM) was 86.2%, the viability, T/C (second compound 0.1 µM, first compound 0.00949 µM) was 78.3% and the viability, T/C (second compound 0.1 µM, first compound 0.03 µM) was 76.7%. For the same molecule, the viability, T/C (second compound 0.1 µM, first compound 0.0949 µM) was 65%, the viability, T/C (second compound 0.1 µM, first compound 0.3 µM) was 42.7% and the viability, T/C (second compound 0.316 µM, first compound 0.000949 µM) was 79.3%. The viability, T/C (second compound 0.316 µM, first compound 0.003 µM) was 88%, the viability, T/C (second compound 0.316 µM, first compound 0.00949 µM) was 82.3% and the viability, T/C (second compound 0.316 µM, first compound 0.03 µM) was 66.3%. It also gave a viability, T/C (second compound 0.316 µM, first compound 0.0949 µM) of 58.2%, a viability, T/C (second compound 0.316 µM, first compound 0.3 µM) of 42% and a viability, T/C (second compound 1 µM, first compound 0.000949 µM) of 81.6%. For the same molecule, the viability, T/C (second compound 1 µM, first compound 0.003 µM) was 85%, the viability, T/C (second compound 1 µM, first compound 0.00949 µM) was 86.2% and the viability, T/C (second compound 1 µM, first compound 0.03 µM) was 72.5%. It also gave a viability, T/C (second compound 1 µM, first compound 0.0949 µM) of 59.1%, a viability, T/C (second compound 1 µM, first compound 0.3 µM) of 43.5% and a viability, T/C (second compound 3.16 µM, first compound 0.000949 µM) of 89.3%. The viability, T/C (second compound 3.16 µM, first compound 0.003 µM) was 94.5%, the viability, T/C (second compound 3.16 µM, first compound 0.00949 µM) was 89.9% and the viability, T/C (second compound 3.16 µM, first compound 0.03 µM) was 74.9%. For the same molecule, the viability, T/C (second compound 3.16 µM, first compound 0.0949 µM) was 57.5%, the viability, T/C (second compound 3.16 µM, first compound 0.3 µM) was 45.5% and the viability, T/C (second compound 10 µM, first compound 0.000949 µM) was 82.5%. It also gave a viability, T/C (second compound 10 µM, first compound 0.003 µM) of 82.7%, a viability, T/C (second compound 10 µM, first compound 0.00949 µM) of 78.1% and a viability, T/C (second compound 10 µM, first compound 0.03 µM) of 73.3%. It also gave a viability, T/C (second compound 10 µM, first compound 0.0949 µM) of 64.8% and a viability, T/C (second compound 10 µM, first compound 0.3 µM) of 41.2%.
In the case of `O=C(c1cc(Cc2n[nH]c(=O)c3ccccc23)ccc1F)N1CCN(C(=O)C2CC2)CC1` + CC(CO)NC(=O)c1cc(-c2ccc(Cl)cc2)nn(-c2cnn(C)c2)c1=O, the IC50 (second compound 0.1 µM) is reported as over 10000 nM, the IC50 (second compound 0.316 µM) is reported as over 10000 nM and the IC50 (second compound 1 µM) is reported as over 10000 nM. The IC50 (second compound 3.16 µM) was over 10000 nM, the IC50 (second compound 10 µM) was over 10000 nM and the viability, T/C (second compound 0.1 µM, first compound 0.0316 µM) was 113%. It also gave a viability, T/C (second compound 0.1 µM, first compound 0.1 µM) of 112%, a viability, T/C (second compound 0.1 µM, first compound 0.316 µM) of 109% and a viability, T/C (second compound 0.1 µM, first compound 1 µM) of 104%. It also gave a viability, T/C (second compound 0.1 µM, first compound 3.16 µM) of 96.3%, a viability, T/C (second compound 0.1 µM, first compound 10 µM) of 93.5% and a viability, T/C (second compound 0.316 µM, first compound 0.0316 µM) of 110%. For the same molecule, the viability, T/C (second compound 0.316 µM, first compound 0.1 µM) was 115%, the viability, T/C (second compound 0.316 µM, first compound 0.316 µM) was 114% and the viability, T/C (second compound 0.316 µM, first compound 1 µM) was 104%. The viability, T/C (second compound 0.316 µM, first compound 3.16 µM) was 98.9%, the viability, T/C (second compound 0.316 µM, first compound 10 µM) was 89.7% and the viability, T/C (second compound 1 µM, first compound 0.0316 µM) was 106%. For the same molecule, the viability, T/C (second compound 1 µM, first compound 0.1 µM) was 113%, the viability, T/C (second compound 1 µM, first compound 0.316 µM) was 121% and the viability, T/C (second compound 1 µM, first compound 1 µM) was 108%. For the same molecule, the viability, T/C (second compound 1 µM, first compound 3.16 µM) was 110%, the viability, T/C (second compound 1 µM, first compound 10 µM) was 94.7% and the viability, T/C (second compound 3.16 µM, first compound 0.0316 µM) was 122%. The viability, T/C (second compound 3.16 µM, first compound 0.1 µM) was 124%, the viability, T/C (second compound 3.16 µM, first compound 0.316 µM) was 126% and the viability, T/C (second compound 3.16 µM, first compound 1 µM) was 105%. It also gave a viability, T/C (second compound 3.16 µM, first compound 3.16 µM) of 106%, a viability, T/C (second compound 3.16 µM, first compound 10 µM) of 88.5% and a viability, T/C (second compound 10 µM, first compound 0.0316 µM) of 96.2%. It also gave a viability, T/C (second compound 10 µM, first compound 0.1 µM) of 107%, a viability, T/C (second compound 10 µM, first compound 0.316 µM) of 112% and a viability, T/C (second compound 10 µM, first compound 1 µM) of 101%. For the same molecule, the viability, T/C (second compound 10 µM, first compound 3.16 µM) was 99.9% and the viability, T/C (second compound 10 µM, first compound 10 µM) was 86.9%.
